Measurements published in patent US20050158709A1, “Methods for determinging the influence of protein binding on antiretroviral activity” (priority 2002, published 2005).
Where two headings read alike, the source gives them in different places.

What was measured:
[1] = tested on: various HIV-1 strains (resistant strains); assay type: cell-based; conditions: for EC50 ratio (human plasma or serum protein vs 10% FCS), concentration range 50 nM-5 nM: EC50 50 nM-5 nM (in vitro testing concentrations, wild type HIV); for EC50 ratio (human plasma or serum protein vs 10% FCS), concentration range 500 nM-50 nM: strains with EC50 500 nM-50 nM (sub-therapeutic concentrations)
Description: (§1) The influence of AAG, Human Serum Albumin (HSA) or Human Serum (HS) on the activity of antiretrovirals was measured in a cell-based antiviral assay. A phenotypic assay was performed to measure the ability of resistant virus strains to grow in the presence of each drug of interest, and in the presence of various combinations of plasma or serum proteins at different concentrations: • 50% heat-inactivated human serum (HS) with or without 10% fetal calf serum (FCS) • 1 mg/mL AAG and 10% FCS • 45 mg/mL human serum albumin (HSA) and 10% FCS
(§2) Anti-HIV activity was determined in HIV-or mock-infected MT4 cells by the MTT method as described by Pauwels et al (1988), J.Virol.Meth.20:[…], and Hertogs et al (1998), Antimicrob.Ag.Chemother.42:269-27. Briefly, recombinant or non-recombinant virus, with a specific resistance profile, were grown in cell culture to obtain viral stocks of known concentration. Susceptibility testing of the viral stocks in the presence of various antiviral agents and in the presence of plasma or serum proteins, and a detection system based on MTT determined to which extent agents inhibited replication of the virus strains.
(§3) Virus strains used for these studies had different origins: • HIV strains obtained by in vitro selection in the presence of various antivirals • Recombinant clinical isolates constructed according to the Antivirogram™ method as described by Hertogs et al (1998).
Virus strains with various levels of resistance against each of the PIs were used in similar experiments with AAG.

wild type HIV-1 (LAI) = assay: Cell-based antiviral assay (MT4 cells, MTT method) in the presence of human plasma or serum proteins, wild type HIV-1; conditions: for ratio between EC50 in presence of indicated protein and EC50 in presence of 10% FCS: HS 50% / ratio between EC50 in presence of indicated protein and EC50 in presence of 10% FCS: AAG 1 mg/mL / ratio between EC50 in presence of indicated protein and EC50 in presence of 10% FCS: FCS (10%) / ratio between EC50 in presence of indicated protein and EC50 in presence of 10% FCS: HSA 45 mg/mL: wild type HIV-1 (LAI), median of at least two determinations; for ratio between EC50 in presence of indicated protein and EC50 in presence of 10% FCS: HS 50%: 50% human serum; for ratio between EC50 in presence of indicated protein and EC50 in presence of 10% FCS: AAG 1 mg/mL: AAG 1 mg/mL and 10% FCS; for ratio between EC50 in presence of indicated protein and EC50 in presence of 10% FCS: FCS (10%): FCS 10% (reference); for ratio between EC50 in presence of indicated protein and EC50 in presence of 10% FCS: HSA 45 mg/mL: HSA 45 mg/mL and 10% FCS
Description: as §1, §2, §3

R13127 = assay: EC50 against viral strain R13127; assay type: cell-based, HIV; conditions: Human immunodeficiency virus 1
Description: (§4) As an example, protease inhibitors have clinically relevant concentrations in a range of around 500 nM and more, sub-therapeutic concentrations in the range of around 50 nM to around 500 nM, and in vitro testing concentrations in the range of less than around or 50 nM.

R13025 = assay: EC50 against viral strain R13025; assay type: cell-based, HIV; conditions: Human immunodeficiency virus 1
Description: as §4

LAI = assay: EC50 against viral strain LAI; assay type: cell-based, HIV; conditions: Human immunodeficiency virus 1
Description: as §4

R13485 = assay: EC50 against viral strain R13485; assay type: cell-based, HIV; conditions: Human immunodeficiency virus 1
Description: as §4

R13273 = assay: EC50 against viral strain R13273; assay type: cell-based, HIV; conditions: Human immunodeficiency virus 1
Description: as §4

T13127 = assay: EC50 against viral strain T13127; assay type: cell-based, HIV; conditions: Human immunodeficiency virus 1
Description: as §4

T13025 = assay: EC50 against viral strain T13025; assay type: cell-based, HIV; conditions: Human immunodeficiency virus 1
Description: as §4

R13020 = assay: EC50 against viral strain R13020; assay type: cell-based, HIV; conditions: Human immunodeficiency virus 1
Description: as §4

R13031 = assay: EC50 against viral strain R13031; assay type: cell-based, HIV; conditions: Human immunodeficiency virus 1
Description: as §4

HIV [2] = conditions: extensive protein binding prevented intracellular diffusion; cited from earlier work
HIV [3] = conditions: cited from earlier work
R13036 = assay: EC50 against viral strain R13036; assay type: cell-based, HIV; conditions: Human immunodeficiency virus 1
Description: as §4

R13028 = assay: EC50 against viral strain R13028; assay type: cell-based, HIV; conditions: Human immunodeficiency virus 1
Description: as §4

HIV [4] = conditions: in vitro; increasing AAG; cited from earlier work
[5] = protein not given, AAG, median of at least two determinations
[6] = strains with EC50 5 μM-500 nM (clinically relevant concentrations), protein not given, AAG, median of at least two determinations

Row | Compound | EC50 ratio (human plasma or serum protein vs 10% FCS), concentration range 50 nM-5 nM [1, 5] | EC50 ratio (human plasma or serum protein vs 10% FCS), concentration range 500 nM-50 nM [1, 5] | ratio between EC50 in presence of indicated protein and EC50 in presence of 10% FCS: HS 50% (wild type HIV-1 (LAI)) | ratio between EC50 in presence of indicated protein and EC50 in presence of 10% FCS: AAG 1 mg/mL (wild type HIV-1 (LAI)) | ratio between EC50 in presence of indicated protein and EC50 in presence of 10% FCS: FCS (10%) (wild type HIV-1 (LAI)) | ratio between EC50 in presence of indicated protein and EC50 in presence of 10% FCS: HSA 45 mg/mL (wild type HIV-1 (LAI)) | EC50 (R13025) | EC50 (LAI) | EC50 ratio (human plasma or serum protein vs 10% FCS), concentration range 5 μM-500 nM [1] | also measured
1 | CC(C)CN(C[C@@H](O)[C@H](Cc1ccccc1)NC(=O)O[C@H]1CCOC1)S(=O)(=O)c1ccc(N)cc1 [amprenavir] | 38 | 14 | 12 | 25 | 1 | 2 | ~412 nM | ~42 nM |  | EC50 ratio (human plasma or serum protein vs 10% FCS), concentration range 5 μM-500 nM [1, 6]: 5; EC50 (R13127): ~2000 nM
2 | Cc1cccc(C)c1OCC(=O)N[C@@H](Cc1ccccc1)[C@@H](O)C[C@H](Cc1ccccc1)NC(=O)[C@H](C(C)C)N1CCCNC1=O [Lopinavir, lopinavir] | 64 | 20 | 5 | 26 | 1 | 5 |  | ~9 nM | 4 | EC50 (R13485): ~367 nM; EC50 (R13273): ~2000 nM
3 | CC(C)(C)NC(=O)[C@@H]1C[C@@H]2CCCC[C@@H]2CN1C[C@@H](O)[C@H](Cc1ccccc1)NC(=O)[C@H](CC(N)=O)NC(=O)c1ccc2ccccc2n1 [Saquinavir, saquinavir] | 5 | 4 | 5 | 5 | 1 | 3 |  |  | 3 | EC50 ratio (human plasma or serum protein vs 10% FCS), concentration range <5 nM [1]: 19; EC50 ratio (human plasma or serum protein vs 10% FCS), concentration range >5 μM [1]: 2; influence of AAG on the anti-HIV activity ([1]; different HIV-1 strains, AAG 1 mg/mL vs 10% FCS, FIG. 1): decreases with increasing inhibitor concentrations; EC50 (T13127): ~710 nM; EC50 (T13025): ~166 nM; EC50 (R13020): ~7000 nM
4 | CC(C)c1nc(CN(C)C(=O)N[C@H](C(=O)N[C@@H](Cc2ccccc2)C[C@H](O)[C@H](Cc2ccccc2)NC(=O)OCc2cncs2)C(C)C)cs1 [Ritonavir, ritonavir] |  |  |  |  |  |  | ~2000 nM | ~36 nM |  | EC50 (R13031): ~407 nM
5 | CC(C)CN(C[C@@H](O)[C@H](Cc1ccccc1)NC(=O)[C@H](CC(N)=O)NC(=O)c1ccc2ccccc2n1)C(=O)NC(C)(C)C [SC-52151, telinavir] |  |  |  |  |  |  |  |  |  | activity in vivo (clinical efficacy) (HIV [2]): insufficient; antiretroviral activity in vitro (HIV [3]): potent
6 | CC(C)CN(C[C@@H](O)[C@H](Cc1ccccc1)NC(=O)OC1CO[C@H]2OCC[C@@H]12)S(=O)(=O)c1ccc(N)cc1 (some centres unmarked) [compound 1] | 24 | 12 |  |  |  |  |  |  | 7 | EC50 ratio (human plasma or serum protein vs 10% FCS), concentration range <5 nM [1]: 85; EC50 ratio (human plasma or serum protein vs 10% FCS), concentration range >5 μM [1]: 4
7 | Cc1c(O)cccc1C(=O)N[C@@H](CSc1ccccc1)[C@H](O)CN1C[C@H]2CCCC[C@H]2C[C@H]1C(=O)NC(C)(C)C [Nelfinavir, nelfinavir] | 11 | 9 | 25 | 31 | 1 | 7 |  | ~32 nM |  | EC50 ratio (human plasma or serum protein vs 10% FCS), concentration range 5 μM-500 nM [1, 6]: 5; EC50 (R13036): ~1000 nM; EC50 (R13127): ~8000 nM; EC50 (R13028): ~254 nM
8 | CC(C)(C)NC(=O)[C@@H]1CN(Cc2cccnc2)CCN1C[C@@H](O)C[C@@H](Cc1ccccc1)C(=O)N[C@H]1c2ccccc2C[C@H]1O [Indinavir, indinavir] |  |  |  |  |  |  | ~2000 nM | ~36 nM |  | effect of AAG and HS on potency against wild-type HIV-1 (wild type HIV-1 (LAI); wild-type HIV-1, presence of AAG and HS): unaffected; EC50 (R13028): ~261 nM
9 | CC(C)[C@H](NC(=O)N(C)Cc1ccccn1)C(=O)N[C@@H](Cc1ccccc1)[C@H](O)[C@H](O)[C@H](Cc1ccccc1)NC(=O)[C@@H](NC(=O)N(C)Cc1ccccn1)C(C)C [A77003] |  |  |  |  |  |  |  |  |  | antiviral efficacy as the concentration of α1-acid glycoprotein (AAG) was increased (HIV [4]): decreased
